The record followed here is PubChem BioAssay (NCI).

Each structure is given as a SMILES string. Several values for one entry are separate records, joined by “and”; a condition that tells them apart may be missing. Equal values may be shown once.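 Five compound concentrations were applied to cells in 96-well plates for 48 hours; endpoints were derived by simple linear interpolation of the resulting dose-response curve. At the GI50, growth is halved. Definition used: TGI = concentration required for complete inhibition of growth.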

Test systems include NCI-H522 lung; ACHN renal; NCI-H23 lung; HS 578T breast; LOX IMVI melanoma; EKVX NSCLC; OVCAR-4 ovarian; HT29 colon; K-562 leukemia; UACC-257 melanoma; HCT-15 colon; SNB-19 CNS; MOLT-4 leukemia; HOP-92 NSCLC; SR leukemia.
Holding throughout (assay): NCI anticancer screen, dose series, 48 h

In the case of `CCOC(=O)CCC(NC(=O)c1ccc(Nc2cnc3cc(C(F)(F)F)ccc3n2)cc1)C(=O)OCC` (stereo not given), the TGI in the assay on NCI-H522 lung is > 100 µM; in the assay on ACHN renal, > 100 µM; with NCI-H23 lung, > 100 µM; in the assay on HS 578T breast, 47.7 µM; in the assay with LOX IMVI melanoma it was > 100 µM; in the assay on EKVX NSCLC it was > 100 µM. Further, the TGI with OVCAR-4 ovarian was > 100 µM; with HT29 colon it was > 100 µM; in the assay on K-562 leukemia, > 100 µM; in the assay on UACC-257 melanoma, > 100 µM; in the assay with HCT-15 colon, > 100 µM; in the assay on SNB-19 CNS, > 47.8 µM. Also, the figures for the TGI with MOLT-4 leukemia, in the assay with HOP-92 NSCLC and in the assay on SR leukemia were > 100 µM, 49.6 µM and > 100 µM, respectively.

For the molecule `O=S(=O)(O)c1cc(N=Nc2cc(S(=O)(=O)O)c3ccccc3c2O)ccc1/C=C/c1ccc(N=Nc2cc(S(=O)(=O)O)c3ccccc3c2O)cc1S(=O)(=O)O`, the TGI with NCI-H522 lung is > 669 µM; in the assay on ACHN renal it was > 755 µM; in the assay with NCI-H23 lung, 975 µM; in the assay on HS 578T breast it was 756 µM; with LOX IMVI melanoma, > 461 µM; with EKVX NSCLC, > 632 µM. Moreover, the TGI was > 1000 µM with OVCAR-4 ovarian; > 740 µM in the assay with HT29 colon; > 67.1 µM and 78.1 µM in the assay on K-562 leukemia; > 1000 µM with UACC-257 melanoma; > 727 µM with HCT-15 colon; > 1000 µM with SNB-19 CNS. In addition, the TGI in the assay on MOLT-4 leukemia is 51.1 µM and 82.5 µM; with HOP-92 NSCLC it was > 463 µM; with SR leukemia, 70.6 µM. The GI50 was > 807 µM in the assay with OVCAR-4 ovarian; 186 µM with HCT-15 colon; 36.3 µM with MOLT-4 leukemia; > 262 µM in the assay with HOP-92 NSCLC; 32.8 µM in the assay on SR leukemia.

Take `COc1cc(/C=C2\N=C(c3ccccc3)N(c3nc4cc(C)c(C)cc4s3)C2=O)cc(OC)c1OC`: the TGI is 83.9 µM in the assay on ACHN renal; 98 µM with HS 578T breast; 68.7 µM with LOX IMVI melanoma; 70.7 µM in the assay on EKVX NSCLC; > 100 µM in the assay with OVCAR-4 ovarian; 48.6 µM in the assay with HT29 colon. Moreover, the TGI in the assay with K-562 leukemia was > 100 µM; in the assay with UACC-257 melanoma, > 100 µM; in the assay on HCT-15 colon it was > 100 µM; in the assay with SNB-19 CNS, > 100 µM; in the assay on MOLT-4 leukemia, 30.3 µM; with HOP-92 NSCLC, 64.8 µM. Also, in the assay on SR leukemia, the TGI came out at 53.1 µM.

In the case of `CCOC(=O)/C(=C\c1ccnc2ccccc12)P(=O)(OCC)OCC`, the TGI in the assay on NCI-H522 lung is 3.18 µM; with ACHN renal it was 4.82 µM; in the assay with NCI-H23 lung it was 4.22 µM; in the assay with HS 578T breast, 8.63 µM; in the assay on LOX IMVI melanoma, 3.43 µM; in the assay on EKVX NSCLC it was 15.1 µM. The TGI came out at 6.61 µM with OVCAR-4 ovarian; 4.62 µM in the assay on HT29 colon; 9.96 µM in the assay with K-562 leukemia; 14 µM in the assay with UACC-257 melanoma; 3.3 µM with HCT-15 colon; 15.3 µM with SNB-19 CNS. For the same molecule, the results for the TGI in the assay with MOLT-4 leukemia, in the assay on HOP-92 NSCLC and in the assay on SR leukemia were > 100 µM, 6.93 µM and 5.38 µM, respectively.

With `CCOC(=O)NC(Nc1ccc(F)c(F)c1)(C(=O)OCC)C(F)(F)F` (stereo not given), the TGI in the assay with NCI-H522 lung, with ACHN renal, with NCI-H23 lung, with HS 578T breast, in the assay with LOX IMVI melanoma and with EKVX NSCLC was > 100 µM throughout. Besides, the TGI in the assay on OVCAR-4 ovarian, with HT29 colon, with K-562 leukemia, with UACC-257 melanoma, in the assay on HCT-15 colon and with SNB-19 CNS was > 100 µM throughout. The TGI with MOLT-4 leukemia, in the assay on HOP-92 NSCLC and in the assay with SR leukemia was > 100 µM each time.

Consider `CCc1cccc(CC)c1Nc1nc2c(s1)C(=O)c1ccccc1C2=O`, for which the TGI is 83.3 µM in the assay on NCI-H522 lung; 32 µM in the assay on ACHN renal; 32.8 µM in the assay with NCI-H23 lung; 71.4 µM in the assay on HS 578T breast; 36 µM in the assay on LOX IMVI melanoma; 36.1 µM in the assay on EKVX NSCLC. The TGI with K-562 leukemia was > 100 µM; in the assay with UACC-257 melanoma, 37.8 µM; in the assay with HCT-15 colon, 98.1 µM; in the assay on SNB-19 CNS, 31.9 µM; in the assay on MOLT-4 leukemia it was > 100 µM; in the assay with HOP-92 NSCLC, 44.7 µM. This molecule displayed a TGI in the assay with SR leukemia of 89.5 µM.

As for `CCCCCCCC/C=C\CCCCCCCC(=O)OC[C@]1(CO)CCC(=O)O1`, the TGI in the assay on NCI-H522 lung, with ACHN renal, in the assay on NCI-H23 lung, with HS 578T breast, in the assay with LOX IMVI melanoma and in the assay on EKVX NSCLC was > 100 µM throughout. The TGI in the assay on OVCAR-4 ovarian, in the assay with HT29 colon, in the assay with K-562 leukemia, in the assay on UACC-257 melanoma, in the assay on HCT-15 colon and in the assay with SNB-19 CNS was > 100 µM throughout. Besides, the TGI with MOLT-4 leukemia, in the assay with HOP-92 NSCLC and in the assay with SR leukemia was > 100 µM in each case.

Regarding `Cc1ccc(C(=O)OC(C)C)cc1N=NN(C)C`, the TGI with NCI-H522 lung, with ACHN renal, with NCI-H23 lung, in the assay with HS 578T breast, in the assay on LOX IMVI melanoma and with EKVX NSCLC was > 100 µM in each case. The TGI with OVCAR-4 ovarian is > 100 µM; in the assay on HT29 colon, > 100 µM; with K-562 leukemia, > 100 µM; with UACC-257 melanoma, 81.9 µM; in the assay on HCT-15 colon it was > 100 µM; in the assay with SNB-19 CNS it was > 100 µM. Moreover, the TGI with MOLT-4 leukemia, in the assay with HOP-92 NSCLC and in the assay with SR leukemia was > 100 µM throughout.

`COC(=O)CCCC(=O)NC1=C(Nc2ccccc2)C(=O)c2ccccc2C1=O`: the TGI in the assay on NCI-H522 lung came to 35.3 µM; in the assay on ACHN renal, 62.2 µM; with NCI-H23 lung, 29.6 µM; in the assay with HS 578T breast, 84.4 µM; in the assay on LOX IMVI melanoma, 41.6 µM; in the assay with EKVX NSCLC it was 49.7 µM. Besides, the TGI with OVCAR-4 ovarian was 37.1 µM; with K-562 leukemia it was 47.3 µM; in the assay on UACC-257 melanoma, 26.4 µM; in the assay with HCT-15 colon, 41.1 µM; with SNB-19 CNS, 34.6 µM; in the assay on MOLT-4 leukemia, 45.5 µM. The TGI in the assay on HOP-92 NSCLC was 73.6 µM; with SR leukemia, > 100 µM.
